Test results: patent publication US6900216B2, “Dihydroimidazo[2,1-b]thiazole and dihydro-5h-thiazolo[3,2-A]pyrimidines as antidepressant agents” (Knoll GmbH, priority 2000, dated 2005)
Like-named read-outs stand apart in the source and are kept apart here.

Legend:
[1] = target: T1, noradrenaline (NA) reuptake sites (Rattus norvegicus, UniProt Q63380); test: NA uptake: displacement of [3H]nisoxetine from noradrenaline reuptake sites, rat frontal cortical membranes; assay type: binding; conditions: for Ki: [3H]nisoxetine 0.6 nM, rat frontal cortical membranes, fit to data from three experiments; for inhibition at 1 µM: read-out: NA uptake % displacement at 10^−6 M
T1 construct: Frontal cortical tissue from the brains of male Charles River rats; from tissue; host or cells: rat frontal cortical membranes
T1 sequence (Q63380 1-617): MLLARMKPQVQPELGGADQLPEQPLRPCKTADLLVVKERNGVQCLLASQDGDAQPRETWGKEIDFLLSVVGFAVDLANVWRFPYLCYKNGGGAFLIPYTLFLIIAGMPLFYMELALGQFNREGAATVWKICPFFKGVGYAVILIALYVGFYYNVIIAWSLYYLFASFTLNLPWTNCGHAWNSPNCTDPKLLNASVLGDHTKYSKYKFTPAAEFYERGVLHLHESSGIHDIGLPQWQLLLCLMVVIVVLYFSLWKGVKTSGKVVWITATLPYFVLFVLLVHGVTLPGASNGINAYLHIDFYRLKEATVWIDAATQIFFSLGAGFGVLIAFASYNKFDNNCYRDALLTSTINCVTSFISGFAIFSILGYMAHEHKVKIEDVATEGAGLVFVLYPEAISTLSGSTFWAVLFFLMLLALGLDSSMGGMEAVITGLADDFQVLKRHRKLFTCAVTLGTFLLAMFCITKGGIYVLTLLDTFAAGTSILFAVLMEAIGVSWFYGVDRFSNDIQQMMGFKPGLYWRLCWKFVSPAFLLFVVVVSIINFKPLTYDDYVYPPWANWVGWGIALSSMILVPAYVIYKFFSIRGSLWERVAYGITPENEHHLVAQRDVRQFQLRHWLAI
Method: Frontal cortical tissue from the brains of male Charles River rats weighing 150-250 g was homogenised in ice-cold 50 mM Tris-HCl, pH 7.4 (at 25° C.) containing 120 mM sodium chloride and 5 mM potassium chloride (Tris buffer; 1:60 w/v) using a Kinematic polytron (speed setting 6 for 10 seconds) and centrifuged at 40,000 g for 10 minutes. The supernatant was discarded and the pellet rehomogenised in Tris buffer, 1:60 w/v, and centrifuged at 40,000 g for 10 minutes. This step was repeated twice more so that, in total, the brain tissue was homogenised and centrifuged four times. The final pellet was resuspended in 50 mM Tris-HCl, pH 7.4 containing 300 mM sodium chloride and 5 mM potassium chloride (equivalent to 18.75 mg wet weight of tissue/ml) and used immediately in the binding assay. All centrifugations were performed at 4° C.
Membranes (400 μl; equivalent to 7.5 mg wet weight of tissue/tube) were incubated with 50 μl [^3H]nisoxetine at a single concentration of 0.6 nM and 50 μl of distilled water (total binding) or 50 μl^− of test compound (at a single concentration 10^−6M or at 10 concentrations ranging from 10^−11-10^−3 M) or 50 μl of mazindol (1 μM; non-specific binding) for 4 h at 4° C. Membrane bound radioactivity was recovered by filtration under vacuum through Skatron 11734 filters using a Skatron cell harvester. Filters were rapidly washed with ice-cold 50 mM Tris-HCl, pH 7.4 containing 120 mM sodium chloride and 5 mM potassium chloride (wash setting 9,9,0). The scored filter paper discs were punched out into vials, scintillation fluid added and radioactivity determined by liquid scintillation counting.
(§1) For each of these tests measuring the ability of compounds of Formula I to displace standard ligands from 5-HT1A receptors and 5-hydroxytryptamine (5-HT) and noradrenaline (NA) reuptake sites and muscarinic receptors in vitro, the percentage displacement of specific binding of tritiated ligand by 10^−6 M test compound was calculated in the following way.
(§2) Firstly, specific binding of tritiated ligand in the absence (A) and presence (B) of test compound was determined:
(§3) In the absence of compound: A(dpm)=Total binding (dpm)−Non-specific binding (dpm) In the presence of compound (10^−6 M): B(dpm)=Binding at 10^−6M (dpm)−Non-specific binding (dpm)
(§4) The specific binding of tritiated ligand in the presence (B) of compound was then converted to a percentage of specific binding of tritiated ligand in the absence (A) of compound: % Specific binding at 10^−6 M=B(dpm)/A(dpm)×100
(§5) The percentage displacement of specific binding of tritiated ligand by the test compound (10^−6 M) was then obtained by subtraction of the percentage specific binding in the presence of compound from the percentage specific binding in the absence of compound, which is taken as the maximum binding and so equals 100%:
(§6) % Displacement at 10^−6 M=100−% Specific binding at 10^−6 M.
(§7) In some cases, displacement curves were then produced for compounds which displaced ≧50% of specific binding of the tritiated ligand at 10^−6 M using a range of concentrations of the compound. The Ki was then calculated by simultaneous fitting using equations derived from the Feldman equations by robust non-linear regression to data from three experiments simultaneously (De Lean et al., 1978; Munson and Rodbard, 1980; Feldman, 1992). Munson P J and Rodbard D. Ligand: a versatile computerised approach for characterisation of ligand binding systems. Anal Biochem 1980; 107: 220. Feldman HA. Mathematical theory of complex ligand binding systems at equilibrium: some methods for parameter fitting. Anal Biochem 1992: 48, 317. De Lean A, Munson P J and Rodbard D. Simultaneous analysis of families of sigmoidal curves: application to bioassay, radioligand assay, and physiological dose-response curves. Am J Physiol 1978: 235 (2), E97-E102. […]

[2] = system: muscarinic receptors; test: Muscarinic binding: displacement of [3H]N-methylscopolamine, rat frontal cortical membranes; conditions: for Muscarinic % displacement at 10^−6 M: 10^−6 M test compound, single determination, [3H]N-methylscopolamine; for Ki: [3H]N-methylscopolamine 0.15 nM, rat frontal cortical membranes
Method: Frontal cortical tissue from the brains of male Charles River rats weighing 150-250 g was homogenised in ice-cold 20 mM HEPES buffer, pH 7.5 (measured at 25° C.) containing 100 mM sodium chloride and 10 mM magnesium chloride (1:10 w/v) using a Polytron PT3100 (speed setting 21,700 rpm, 3×5 seconds) and centrifuged at 49,500 g for 30 minutes at 4° C. The supernatant was discarded and the pellet rehomogenised in 20 mM HEPES buffer, pH 7.5 containing 100 mM sodium chloride and 10 mM magnesium chloride (equivalent to 12.5 mg wet weight of tissue/ml). Membranes were stored at −80° C. until required.
Membranes were thawed, diluted 1:10 in ice-cold 20 mM HEPES buffer, pH 7.5 containing 100 mM sodium chloride and 10 mM magnesium chloride and homogenised using a Polytron PT3100 as above. Diluted membranes (200 μl; equivalent to 0.25 mg wet weight of tissue/tube) were incubated with 200 μl of 20 mM HEPES buffer, pH 7.5 containing 100 mM sodium chloride and 10 mM magnesium chloride and 50 μl [^3H]N-methylscopolamine at a single concentration of 0.15 nM and 50 μl distilled water (total binding) or 50 μl test compound (at a single concentration of 10^−6 M or at 10 concentrations ranging from 10^−11-10^−3 M) or 50 μl atropine sulphate (1 μM; non-specific binding) for 30 min at 30° C. Membrane bound radioactivity was recovered by filtration under vacuum through Skatron 11734 filters using a Skatron cell harvester. Filters were rapidly washed with ice-cold 20 mM HEPES buffer, pH 7.5 (wash 1,2 at setting 5,5). The scored filter paper discs were punched out into vials, scintillation fluid added and radioactivity determined by liquid scintillation counting.
as §1, §2, §3, §4, §5, §6, §7

| Ki [1] [nM] | Muscarinic % displacement at 10^−6 M [2] [%] | inhibition at 1 µM ([1]; 10^−6 M test compound, single determination, [3H]nisoxetine) [%] | SMILES | melting point | inhibition at 1 µM [1] [%] | Ki [2] [nM] |
| --- | --- | --- | --- | --- | --- | --- |
| 5.4 | −8 | – | OCC1=C(c2ccc3sccc3c2)N2CCN=C2S1 [Example 28, [3-(benzo[b]thiophen-5-yl)-5,6-dihydroimidazo[2,1-b]-thiazol-2-yl]methanol] | 149 to 150 °C | – | – |
| 4 | −5 | – | CC1=C(c2cccc3ccsc23)N2CCN=C2S1.Cl [Example 23, 3-(benzo[b]thiophen-7-yl)-2-methyl-5,6-dihydroimidazo[2,1-b]thiazole hydrochloride] | 210 to 212 °C | – | – |
| 5.8 | 22 | – | Br.Oc1cccc2sc(C3=CSC4=NCCN34)cc12 [Example 12, 2-(5,6-dihydroimidazo[2,1-b]thiazol-3-yl)benzo[b]thiophen-4-ol hydrobromide] | – | – | – |
| 2 | – | – | Br.c1cc(C2=C(C3CC3)SC3=NCCN32)c2ccsc2c1 [Example 34, 3-(benzo[b]thiophen-4-yl)-2-cyclopropyl-5,6-dihydroimidazo[2,1-b]thiazole hydrobromide] | 213 to 214 °C | – | 76 |
| 5.5 | 9 | – | Br.CC1=C(c2ccc3sccc3c2)N2CCN=C2S1 [Example 21, 3-(benzo[b]thiophen-5-yl)-2-methyl-5,6-dihydroimidazo[2,1-b]thiazole hydrobromide] | 285 °C | – | – |
| 2.9 | −3 | – | OCC1=C(c2cccc3sccc23)N2CCN=C2S1 [Example 3, [3-(benzo[b]thiophen-4-yl)-5,6-dihydroimidazo[2,1-b]thiazol-2-yl]methanol] | 145 to 149 °C | – | – |
| 3.7 | – | – | CC(C)C1=C(c2ccc3sccc3c2)N2CCN=C2S1 [Example 29, 3-(benzo[b]thiophen-5-yl)-2-(1-methylethyl)-5,6-dihydroimidazo[2,1-b]-thiazole] | – | – | 798 |
| 21 | −2 | – | Br.CC1=C(c2cc3ccccc3s2)N2CCN=C2S1 [Example 6, 3-(benzo[b]thiophen-2-yl)-2-methyl-5,6-dihydroimidazo[2,1-b]thiazole hydrobromide] | 257 to 259 °C (dec.) | – | – |
| 9.5 | 17 | – | Br.CC1=C(c2cc3c(F)cccc3s2)N2CCN=C2S1 [Example 7, 3-(4-fluorobenzo[b]thiophen-2-yl)-2-methyl-5,6-dihydroimidazo[2,1-b]thiazole hydrobromide] | 224 to 226 °C | – | – |
| 6.1 | 0 | – | Br.CC1=C(c2cccc3sccc23)N2CCN=C2S1 [Example 8, 3-(benzo[b]thiophen-4-yl)-2-methyl-5,6-dihydroimidazo[2,1-b]thiazole hydrobromide] | – | – | – |
| 5.9 | 13 | – | CC1=C(c2cccc3sccc23)N2CCN=C2S1.Cl [Example 9, 3-(benzo[b]thiophen-4-yl)-2-methyl-5,6-dihydroimidazo[2,1-b]thiazole hydrochloride] | – | – | – |
| – | 12 | 101 | CSC1=C(c2ccc3sccc3c2)N2CCN=C2S1 [Example 30, 3-(benzo[b]thiophen-5-yl)-2-(methylthio)-5,6-dihydroimidazo[2,1-b]thiazole] | – | – | – |

Further lines, the compound ahead of its results:

| SMILES | Ki [1] [nM] | Muscarinic % displacement at 10^−6 M [2] [%] | inhibition at 1 µM ([1]; 10^−6 M test compound, single determination, [3H]nisoxetine) [%] | melting point | inhibition at 1 µM [1] [%] | Ki [2] [nM] |
| --- | --- | --- | --- | --- | --- | --- |
| Br.CC1=C(c2cc3c(Cl)cccc3s2)N2CCCN=C2S1 [Example 17, 3-(4-chlorobenzo[b]thiophen-2-yl)-2-methyl-6,7-dihydro-5H-thiazolo[3,2-a]pyrimidine hydrobromide] | – | 29 | – | 236 to 238 °C | 84 | – |
| Br.COc1cccc2cc(C3=C(C)SC4=NCCN43)sc12 [Example 26, 3-(7-methoxybenzo[b]thiophen-2-yl)-2-methyl-5,6-dihydroimidazo[2,1-b]thiazole hydrobromide] | – | −11 | – | 270 to 272 °C | -3 | – |
| CSC1=C(c2cccc3sccc23)N2CCN=C2S1.Cl [Example 22, 3-(benzo[b]thiophen-4-yl)-2-(methylthio)-5,6-dihydroimidazo[2,1-b]thiazole hydrochloride] | 1.5 | – | – | 95 to 105 °C | – | 439 |
| CC(C)C1=C(c2cccc3sccc23)N2CCN=C2S1.O=C(O)/C=C/C(=O)O [Example 35, 3-(benzo[b]thiophen-4-yl)-2-(1-methylethyl)-5,6-dihydroimidazo[2,1-b]thiazole fumarate] | 5.5 | – | – | 175 to 178 °C | – | 492 |
| Br.CCC1=C(c2cc3cc(Cl)ccc3s2)N2CCN=C2S1 [Example 11, 3-(5-chlorobenzo[b]thiophen-2-yl)-2-ethyl-5,6-dihydroimidazo[2,1-b]thiazole hydrobromide] | – | 44 | – | 282 to 284 °C | 92 | – |
| Cl.Fc1cccc2sc(C3=CSC4=NCCN34)cc12 [Example 5, 3-(4-fluorobenzo[b]thiophen-2-yl)-5,6-dihydroimidazo[2,1-b]thiazole hydrochloride] | – | 42 | – | 220 to 224 °C | 100 | – |
| Br.CC1=C(c2cc3c(Cl)c(Cl)ccc3s2)N2CCN=C2S1 [Example 24, 3-(4,5-dichlorobenzo[b]thiophen-2-yl)-2-methyl-5,6-dihydroimidazo[2,1-b]-thiazole hydrobromide] | – | −10 | – | 244 to 246 °C | 39 | – |
| Br.CC1(c2cc3cc(F)ccc3s2)CSC2=NCCN21 (centres unmarked) [Example 27, 3-(5-fluorobenzo[b]thiophen-2-yl)-3-methyl-5,6-dihydroimidazo[2,1-b]thiazole hydrobromide] | – | −1 | – | – | 72 | – |
| C=CC1=C(c2cccc3sccc23)N2CCN=C2S1.Cl [Example 39, 3-(benzo[b]thiophen-4-yl)-2-vinyl-5,6-dihydroimidazo[2,1-b]thiazole hydrochloride] | – | – | – | 195 to 197 °C | 100 | – |
